Measured values: ChEMBL document CHEMBL1150105, “Polytolypin, a new antifungal triterpenoid from the coprophilous fungus Polytolypa hystricis” (1995)
The source made the active and inactive calls. The rule behind the calls is not given here.

What was measured:
[1] = tested on: Ascobolus; test: Antifungal activity against Ascobolus furfuraceus NRRL 6460 at 100 ug/disk by standard disk assay; type: functional
[2] = tested on: Candida albicans; test: Antifungal activity against Candida albicans ATCC 14053 at 80 ug /disk by standard disk assay; type: functional; details: read-out: IZ

CC(=O)CC1(O)C(=O)c2cc3c(c4c(C)cc(O)c(c24)C1=O)OC(C)C3(C)C (centres undefined) showed an inhibition at 100 µg/disc [1] of 47%.

For Cc1cc(O)c2c3c(cc4c(c13)OC(C)C4(C)C)C(=O)/C(=N\C1C(=O)c3cc4c(c5c(C)cc(O)c(c35)C1=O)OC(C)C4(C)C)C2=O (centres undefined), the Activity [1] was “inactive”.

CC(C)[C@H]1CC[C@@H]2[C@]1(C)CC[C@]1(C)C3=CC[C@H]4[C@](C)(C(=O)O)[C@@H](O)[C@H](O)[C@@H](O)[C@]4(C(=O)O)[C@H]3CC[C@@]21C [POLYTOLYPIN] was tested, and the zone of inhibition at 80 µg/disc [2] was 11 mm and the inhibition at 100 µg/disc [1] was 47%.
